Assays:
Experiment in all cases: Bliss excess, mean over the matrix (fraction); higher = more synergy
[1] = tested on: 639-V (Bladder Carcinoma)
Outline: (§1)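 Cell lines grown in DMEM/F12 or RPMI with 10% FBS were plated in 1536-well plates and held 24 hours at 37°C, 5% CO2 before 72 hours of exposure to two-drug dose matrices, with DMSO typically at 0.2%. CellTiter-Glo 2.0 luminescence gave viability, which was converted to inhibition. Vehicle wells were set to 0 and blank wells to 1. Combination Emax is the second-highest inhibition in the matrix, and Bliss excess is the observed combination effect minus the expected EA + EB − EA·EB, where EA and EB are the single-agent effects.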

[2] = tested on: CAPAN-1 (Pancreatic Carcinoma)
Outline: as §1

[3] = tested on: EN (Endometrial Carcinoma)
Outline: as §1

[4] = tested on: HCC-15 (Squamous Cell Lung Carcinoma)
Outline: as §1

[5] = tested on: HDLM-2 (Hodgkin's Lymphoma)
Outline: as §1

[6] = tested on: HO-1-u-1 (Oral Cavity Carcinoma)
Outline: as §1

[7] = tested on: Hs-633T (Other Solid Carcinomas)
Outline: as §1

[8] = tested on: K5 (Thyroid Gland Carcinoma)
Outline: as §1

[9] = tested on: LoVo (Colorectal Carcinoma)
Outline: as §1

[10] = tested on: MHH-PREB-1 (B-Cell Non-Hodgkin's Lymphoma)
Outline: as §1

Mewo (Melanoma) = tested on: Mewo (Melanoma)
Outline: as §1

NB14 (Neuroblastoma) = tested on: NB14 (Neuroblastoma)
Outline: as §1

NCI-H2461 (Mesothelioma) = tested on: NCI-H2461 (Mesothelioma)
Outline: as §1

NCI-H2795 (Mesothelioma) = tested on: NCI-H2795 (Mesothelioma)
Outline: as §1

[11] = tested on: NCI-H69 (Small Cell Lung Carcinoma)
Outline: as §1

[12] = tested on: RPMI-6666 (Non-Cancerous)
Outline: as §1

SH-4 (Melanoma) = tested on: SH-4 (Melanoma)
Outline: as §1

[13] = tested on: SK-OV-3 (Ovarian Carcinoma)
Outline: as §1

[14] = tested on: SW626 (Colorectal Carcinoma)
Outline: as §1

[15] = tested on: UMC-11 (Other Solid Carcinomas)
Outline: as §1

| SMILES | Bliss excess [1] | Bliss excess [2] | Bliss excess [3] | Bliss excess [4] | Bliss excess [5] | Bliss excess [6] | Bliss excess [7] | Bliss excess [8] | Bliss excess [9] | Bliss excess [10] | Bliss excess (Mewo (Melanoma)) | Bliss excess (NB14 (Neuroblastoma)) | Bliss excess (NCI-H2461 (Mesothelioma)) | Bliss excess (NCI-H2795 (Mesothelioma)) | Bliss excess [11] | Bliss excess [12] | Bliss excess (SH-4 (Melanoma)) | Bliss excess [13] | Bliss excess [14] | Bliss excess [15] |
| --- | --- | --- | --- | --- | --- | --- | --- | --- | --- | --- | --- | --- | --- | --- | --- | --- | --- | --- | --- | --- |
| C=CCn1c(=O)c2cnc(Nc3ccc(N4CCN(C)CC4)cc3)nc2n1-c1cccc(C(C)(C)O)n1 [AZD1775] + O=C(c1cc(Cc2n[nH]c(=O)c3ccccc23)ccc1F)N1CCN(C(=O)C2CC2)CC1 [Olaparib] (first compound max 1 µM, partner max 10 µM) | 0.0085 | -0.0123 | -0.0469 | -0.0004 | -0.0536 | -0.0521 | -0.0188 | -0.0175 | -0.0313 | -0.0311 | -0.0237 | -0.0306 | -0.0561 | -0.0182 | -0.0166 | -0.0373 | -0.0882 | -0.0465 | -0.0526 | 0.0135 |
| CCN(CCO)CCCOc1ccc2c(Nc3cc(CC(=O)Nc4cccc(F)c4)[nH]n3)ncnc2c1 [AZD2811] + C=CCn1c(=O)c2cnc(Nc3ccc(N4CCN(C)CC4)cc3)nc2n1-c1cccc(C(C)(C)O)n1 [AZD1775] (first compound max 1 µM, partner max 1 µM) | 0.0509 | -0.0733 | -0.0426 | -0.0049 | 0.0252 | -0.0168 | -0.008 | -0.0062 | -0.0731 | -0.0254 | -0.011 | -0.0236 | -0.0679 | -0.0117 | -0.0671 | -0.0271 | -0.0484 | -0.068 | -0.0443 | 0.0014 |
| CCN(CCO)CCCOc1ccc2c(Nc3cc(CC(=O)Nc4cccc(F)c4)[nH]n3)ncnc2c1 [AZD2811] + C[C@@H]1COCCN1C2=NC(=NC(=C2)C3(CC3)[S@](=N)(=O)C)C4=C5C=CNC5=NC=C4 [AZD6738] (first compound max 1 µM, 7x7, partner max 10 µM) | -0.0164 | -0.0939 | -0.0866 | -0.0238 | -0.0357 | -0.023 | -0.0197 | -0.086 | -0.104 | -0.0608 | -0.0399 | -0.0888 | -0.0728 | -0.0517 | -0.0552 | -0.0653 | -0.0474 | -0.117 | -0.0724 | -0.0488 |
| Cc1c2c(nn1C)CSCc1cc(n(C)n1)CSc1cc(c3ccccc3c1)OCCCc1c(C(=O)O)n(C)c3c-2c(Cl)ccc13 [AZD5991] + CCN(CCO)CCCOc1ccc2c(Nc3cc(CC(=O)Nc4cccc(F)c4)[nH]n3)ncnc2c1 [AZD2811] (first compound max 1 µM, 7x7, partner max 1 µM) | 0.0649 | -0.0303 | 0.0145 | -0.0144 | -0.0117 | 0.0569 | -0.0106 | -0.0431 | -0.0257 | 0.0147 | -0.0173 | 0.0085 | 0.0185 | 0.041 | 0.0092 | – | 0.0439 | 0.0018 | 0.0141 | -0.0037 |
| CS(=O)(=O)CCNCc1ccc(-c2ccc3ncnc(Nc4ccc(OCc5cccc(F)c5)c(Cl)c4)c3c2)o1 [Lapatinib] + Cn1cnc2c(F)c(Nc3ccc(Br)cc3Cl)c(C(=O)NOCCO)cc21 [Selumetinib] (first compound max 10 µM, 7x7, partner max 10 µM) | – | -0.0664 | -0.0829 | – | 0.0023 | -0.0047 | 0.026 | -0.022 | 0.0361 | – | -0.0029 | 0.0397 | -0.0492 | -0.0488 | -0.0384 | 0.0204 | -0.0519 | -0.0287 | – | – |
| CS(=O)(=O)CCNCc1ccc(-c2ccc3ncnc(Nc4ccc(OCc5cccc(F)c5)c(Cl)c4)c3c2)o1 [Lapatinib] + NC1(c2ccc(-c3nc4ccn5c(=O)[nH]nc5c4cc3-c3ccccc3)cc2)CCC1 [MK-2206] (first compound max 10 µM, 7x7, partner max 10 µM) | – | -0.016 | -0.0024 | – | -0.0168 | 0.0235 | 0.0256 | 0.0293 | 0.0841 | – | 0.0072 | 0.0136 | -0.0423 | 0.0513 | 0.0389 | 0.0164 | 0.0025 | 0.0257 | – | – |
| CCc1c2c(nc3ccc(O)cc13)-c1cc3c(c(=O)n1C2)COC(=O)[C@]3(O)CC [SN-38] + O=C(c1cc(Cc2n[nH]c(=O)c3ccccc23)ccc1F)N1CCN(C(=O)C2CC2)CC1 [Olaparib] (first compound max 0.3 µM, 7x7, partner max 10 µM) | 0.0917 | 0.0168 | -0.0377 | – | -0.0438 | 0.0415 | 0.17 | 0.0566 | 0.0556 | – | 0.008 | 0.0063 | 0.0234 | 0.08 | -0.0035 | 0.0394 | 0.0956 | 0.0571 | 0.0064 | 0.035 |
| Cc1nc(-c2cn3c(n2)-c2ccc(-c4cnn(C(C)(C)C(N)=O)c4)cc2OCC3)n(C(C)C)n1 [Taselisib] + O=C(Nc1ccc2[nH]nc(-c3ccncc3)c2c1)[C@@H]1CCN(CC(=O)N2CCN(c3ccc(-c4ncccn4)cc3)CC2)C1 [SCH772984] (first compound max 10 µM, 7x7, partner max 5 µM) | – | 0.0449 | -0.034 | – | 0.0529 | 0.0064 | 0.0891 | 0.0419 | -0.0284 | – | 0.017 | 0.192 | -0.012 | 0.0704 | 0.0251 | -0.001 | 0.0374 | 0.0609 | – | – |
